Read-outs that look alike come from different tables or passages of the source.
Columns and labels:
M1 muscarinic receptor = biological target: T1, M1 muscarinic receptor (Homo sapiens, UniProt P11229); assay: Functional mobilization of intracellular calcium (FLIPR, Fluo-3), M1-CHO cells; type: cell-based; conditions: for Emax: read-out: M1 Efficacy
T1 construct: expressed in transfected cells; host or cells: CHO cells (M1-CHO, under zeocin and G418 selection)
T1 sequence (P11229 1-460): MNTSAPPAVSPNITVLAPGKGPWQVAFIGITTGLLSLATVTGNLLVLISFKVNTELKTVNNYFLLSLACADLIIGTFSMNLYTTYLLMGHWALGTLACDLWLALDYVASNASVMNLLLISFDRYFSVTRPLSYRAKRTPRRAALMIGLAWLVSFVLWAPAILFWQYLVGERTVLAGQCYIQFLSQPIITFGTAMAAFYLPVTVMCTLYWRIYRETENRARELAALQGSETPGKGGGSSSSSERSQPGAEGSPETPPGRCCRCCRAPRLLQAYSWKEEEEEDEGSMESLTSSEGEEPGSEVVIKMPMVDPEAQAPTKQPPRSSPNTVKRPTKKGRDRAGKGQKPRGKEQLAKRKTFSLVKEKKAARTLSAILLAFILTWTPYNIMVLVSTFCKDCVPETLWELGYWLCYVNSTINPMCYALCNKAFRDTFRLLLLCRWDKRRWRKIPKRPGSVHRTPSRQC
In short: (§1)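 CHO lines stably carrying the muscarinic subtype, dye-loaded with Fluo-3 at 37° C for 60-90 min, receive test compound in 0.5% DMSO. Agonist effects are read directly; antagonist effects against carbachol at EC80 after 15 min pre-incubation.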

M4 muscarinic receptor = biological target: T2, M4 muscarinic receptor (Homo sapiens, UniProt P08173); assay: Functional mobilization of intracellular calcium (FLIPR, Fluo-3), M4-CHO cells; type: cell-based; conditions: for Emax: read-out: M4 Efficacy
T2 construct: expressed in transfected cells; host or cells: CHO cells (M4-CHO, under puromycin, zeocin and blasticidin selection)
T2 sequence (P08173 1-479): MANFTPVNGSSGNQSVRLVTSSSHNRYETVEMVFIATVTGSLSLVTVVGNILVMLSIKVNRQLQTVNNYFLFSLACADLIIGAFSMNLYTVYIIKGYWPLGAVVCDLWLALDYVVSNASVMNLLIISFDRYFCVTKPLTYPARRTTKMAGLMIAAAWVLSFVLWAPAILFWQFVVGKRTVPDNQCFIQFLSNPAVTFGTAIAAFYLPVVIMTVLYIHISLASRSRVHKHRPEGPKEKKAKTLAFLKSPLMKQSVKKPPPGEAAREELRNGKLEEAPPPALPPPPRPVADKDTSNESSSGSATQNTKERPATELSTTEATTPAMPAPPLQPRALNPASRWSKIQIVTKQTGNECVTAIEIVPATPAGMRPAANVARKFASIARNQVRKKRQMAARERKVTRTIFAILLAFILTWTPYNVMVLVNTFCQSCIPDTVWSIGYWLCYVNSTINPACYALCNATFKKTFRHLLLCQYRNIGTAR
In short: as §1

[1] = compound nos. 1-454, 100% efficacy is the maximum response obtained with the Carbachol control
[2] = compound nos. 1-454, M1-CHO cells, calcium mobilization
[3] = compound nos. 1-454, M4-CHO cells, calcium mobilization
[4] = compound nos. 455-509, 100% efficacy is the maximum response obtained with the Carbachol control

Structure (SMILES)	Emax (M1 muscarinic receptor; [1])	M1 Activity (M1 muscarinic receptor; [2])	Emax (M4 muscarinic receptor; [1])	M4 Activity (M4 muscarinic receptor; [3])	further results
CC(=O)N1CC2(CCN(CC3CC4CCC3C4)CC2)c2cc(C)ccc21 (stereo not shown) [compound 118]	65 to 85%	+++ (activity was measured to be less than or equal to 0.7 μM)	< 55%	+ (activity was measured to be greater than or equal to 4.0 μM)	–
CC(C)COC(=O)N1C2CCC1CC(N1CCC3(CC1)COc1ccc(F)cc13)C2 (stereo not shown) [compound 160]	> 85%	+++ (activity was measured to be less than or equal to 0.7 μM)	> 70%	++ (activity was measured to be between 0.1 μM and 4.0 μM)	–
CCCOC(=O)N1C2CCC1CC(N1CCC3(CC1)COc1ccc(F)cc13)C2 (stereo not shown) [compound 283]	65 to 85%	++ (activity was measured to be between 0.7 μM and 3.0 μM)	55 to 70%	+ (activity was measured to be greater than or equal to 4.0 μM)	–
CC(=O)NC1CC2(CCN(C[C@@H]3C[C@H]4C=C[C@H]3C4)CC2)c2ccccc21 (stereo partly shown) [compound 421]	–	–	–	–	M1 Activity (M1 muscarinic receptor; compound nos. 1-454): + (activity was measured to be greater than or equal to 3.0 μM); M1 Efficacy (M1 muscarinic receptor; [1]): + (efficacy was calculated to be 65% or less); M4 Activity (M4 muscarinic receptor; compound nos. 1-454): + (activity was measured to be greater than or equal to 4.0 μM); M4 Efficacy (M4 muscarinic receptor; [1]): + (efficacy was calculated to be 55% or less)
CC(=O)N[C@H]1CC2(CCN(C3CCC(c4ccccc4)CC3)CC2)c2ccccc21 (stereo partly shown) [compound 273]	> 85%	+++ (activity was measured to be less than or equal to 0.7 μM)	> 70%	++ (activity was measured to be between 0.1 μM and 4.0 μM)	–
CCOC(=O)N1CCC(CN2CCC3(CC2)CN(C(C)=O)c2ccc(Cl)cc23)CC1 [compound 256]	< 65%	++ (activity was measured to be between 0.7 μM and 3.0 μM)	< 55%	++ (activity was measured to be between 0.1 μM and 4.0 μM)	–
CCOC(=O)N1CCC(N2CCC3(CC2)CN(C(=O)c2ccc(OC)cc2)c2ccc(F)cc23)CC1 [compound 41]	> 85%	+++ (activity was measured to be less than or equal to 0.7 μM)	> 70%	+++ (activity was measured to be less than or equal to 0.1 μM)	–
Fc1ccc2c(c1)C1(CCN(CC3CCCCC3)CC1)CN2 [compound 239]	65 to 85%	+ (activity was measured to be greater than or equal to 3.0 μM)	55 to 70%	+ (activity was measured to be greater than or equal to 4.0 μM)	–
CCOC(=O)N1C2CCC1CC(N1CCC3(CC1)CN(C(=O)c1ccc(F)cc1)c1ccc(F)cc13)C2 (stereo not shown) [compound 222]	< 65%	+ (activity was measured to be greater than or equal to 3.0 μM)	< 55%	+ (activity was measured to be greater than or equal to 4.0 μM)	–
CC(C)OC(=O)N1C2CCC1CC(N1CCC3(CC1)COc1ccc(F)cc13)C2 (stereo not shown) [compound 320]	65 to 85%	++ (activity was measured to be between 0.7 μM and 3.0 μM)	< 55%	+ (activity was measured to be greater than or equal to 4.0 μM)	–
CCCOC(=O)N1C2CCC1CC(N1CCC3(CC1)CN(C(=O)C1CC1)c1ccc(F)cc13)C2 (stereo not shown) [compound 389]	65 to 85%	–	< 55%	–	M1 Activity (M1 muscarinic receptor; compound nos. 1-454): ++ (activity was measured to be between 0.7 μM and 3.0 μM); M4 Activity (M4 muscarinic receptor; compound nos. 1-454): + (activity was measured to be greater than or equal to 4.0 μM)
Clc1ccc2c(c1)C1(CCO2)CCN([C@@H]2C[C@@H]3CC[C@@H]2C3)CC1 [compound 369]	> 85%	+++ (activity was measured to be less than or equal to 0.7 μM)	> 70%	++ (activity was measured to be between 0.1 μM and 4.0 μM)	–
CCOC(=O)N1CCC(N2CCC3(CC2)CN(C(=O)OCC(C)(C)C)c2ccc(F)cc23)CC1 [compound 63]	< 65%	+++ (activity was measured to be less than or equal to 0.7 μM)	< 55%	+ (activity was measured to be greater than or equal to 4.0 μM)	–
Cc1ccc2c(c1)C1(CCN(CC3CC4CCC3C4)CC1)CN2C(=O)OC(C)(C)C (stereo not shown) [compound 382]	65 to 85%	–	55 to 70%	–	M1 Activity (M1 muscarinic receptor; compound nos. 1-454): +++ (activity was measured to be less than or equal to 0.7 μM); M4 Activity (M4 muscarinic receptor; compound nos. 1-454): + (activity was measured to be greater than or equal to 4.0 μM)
Clc1ccc2c(c1)C1(CCO2)CCN(C2CCCCC2)CC1 [compound 276]	65 to 85%	+++ (activity was measured to be less than or equal to 0.7 μM)	55 to 70%	+ (activity was measured to be greater than or equal to 4.0 μM)	–
CC(=O)N1CCC2(CCN(C3CCN(c4cnccn4)CC3)CC2)c2ccccc21 [compound 463]	–	–	–	–	Emax (M1 muscarinic receptor; [4]): > 100%; M1 Activity (M1 muscarinic receptor; compounds 455-509): +++ (activity was measured to be less than or equal to 2.0 μM); Emax (M4 muscarinic receptor; [4]): 25 to 100%; M4 Activity (M4 muscarinic receptor; compounds 455-509): ++ (activity was measured to be between 2.0 μM and 5.0 μM)
CCOC(=O)N1CCC(N2CCC3(CC2)CN(C(=O)c2cccc(OC)c2)c2ccc(F)cc23)CC1 [compound 45]	> 85%	+++ (activity was measured to be less than or equal to 0.7 μM)	55 to 70%	+++ (activity was measured to be less than or equal to 0.1 μM)	–
Cc1ccc2c(c1)C1(CCN(C3CC4CCC3C4)CC1)CN2 (stereo not shown) [compound 350]	> 85%	+++ (activity was measured to be less than or equal to 0.7 μM)	> 70%	+++ (activity was measured to be less than or equal to 0.1 μM)	–
CCOC(=O)N1CCC(N2CCC3(CC2)CN(C(=O)O[C@H]2CCOC2)c2ccc(F)cc23)CC1 [compound 428]	< 65%	–	< 55%	–	M1 Activity (M1 muscarinic receptor; compound nos. 1-454): ++ (activity was measured to be between 0.7 μM and 3.0 μM); M4 Activity (M4 muscarinic receptor; compound nos. 1-454): + (activity was measured to be greater than or equal to 4.0 μM)
CC(=O)N1CC2(CCN(C3CC4CCC3C4)CC2)c2cc(C)ccc21 (stereo not shown) [compound 138]	65 to 85%	+++ (activity was measured to be less than or equal to 0.7 μM)	55 to 70%	+ (activity was measured to be greater than or equal to 4.0 μM)	–
CC(=O)N1CC2(CCN(C3CCC[C@@H](C)C3)CC2)c2cc(F)ccc21 (stereo partly shown) [compound 240]	65 to 85%	++ (activity was measured to be between 0.7 μM and 3.0 μM)	> 70%	+ (activity was measured to be greater than or equal to 4.0 μM)	–
CC(=O)N1CC2(CCN(C3CC4CCC(C4)C3)CC2)c2cc(F)ccc21 (stereo not shown) [compound 35]	> 85%	+++ (activity was measured to be less than or equal to 0.7 μM)	> 70%	++ (activity was measured to be between 0.1 μM and 4.0 μM)	–
CC(=O)N1CC2(CCN(CC3CCCOC3)CC2)c2cc(F)ccc21 (stereo not shown) [compound 75]	< 65%	+++ (activity was measured to be less than or equal to 0.7 μM)	55 to 70%	++ (activity was measured to be between 0.1 μM and 4.0 μM)	–
CCOC(=O)N1CCC(N2CCC3(CC2)CN(C(=O)c2ccc(C)cc2)c2ccc(F)cc23)CC1 [compound 330]	< 65%	+ (activity was measured to be greater than or equal to 3.0 μM)	< 55%	+ (activity was measured to be greater than or equal to 4.0 μM)	–
CCCC(=O)N1CC2(CCN(C3CCN(C(=O)OCC)CC3)CC2)c2cc(F)ccc21 [compound 324]	65 to 85%	++ (activity was measured to be between 0.7 μM and 3.0 μM)	55 to 70%	+ (activity was measured to be greater than or equal to 4.0 μM)	–

From patent publication US7858635B2 (priority 2005, dated 2010)
